The text below walks through data of PMC7998250, “Temperate Zone Plant Natural Products—A Novel Resource for Activity against Tropical Parasitic Diseases” (Pharmaceuticals, 2021).

The structures appear in SMILES notation. pEC50: −log10 of the molar value. Like-named read-outs stand apart in the source and are kept apart here.

A word on the pEC50: it is the EC50 on a negative log10 scale, so that one unit is a factor of ten.

Series [1] relates to P. falciparum Dd2Luc intraerythrocytic trophozoites. In words: Initial screen, intraerythrocytic P. falciparum, Malaria SYBR-Green I fluorescence assay. In kind it is cell-based, Plasmodium falciparum. The method, then: (§1) 634 compounds from the PhytoQuest Phytopure temperate plant natural product library were screened for growth inhibitory activity against L. mexicana axenic amastigotes, T. brucei bloodstream form, intraerythrocytic asexual P. falciparum (at 2 μM) and T. evansi bloodstream form parasites (at 1 μM). […] Our initial hits were defined as reducing growth of the parasite by ≥50%. […]
(§2) The PhytoQuest Phytopure library is a commercially available collection of purified compounds isolated predominantly from temperate zone plants, with structures confirmed by NMR and mass spectrometry. The library was provided as 634 non-polar compounds (1 mg/mL in DMSO). Initial screening was performed in a 96-well plate with 200 μL of parasite culture. The initial screen used each compound at a final concentration of 2 μM for L. mexicana axenic amastigotes, T. brucei and P. falciparum, and at 1 μM for T. evansi. L. mexicana axenic amastigotes were plated at 1 × 10^6 cells/mL, incubated for 72 h, and the Alamar Blue assay was used to assess parasite growth. Each compound was tested in triplicate, with two biological replicates (n = 6). T. brucei and T. evansi were plated at 1×10^5 cells/mL for 48 h, and the Alamar Blue assay was used to assess parasite growth. Each compound was tested in triplicate with two biological replicates (n = 6). Intraerythrocytic P. falciparum in the trophozoite stage were seeded at 0.5% parasitaemia and 2% haematocrit for 48 h, and the Malaria SYBR-Green I fluorescence assay was used to assess parasite growth. Each compound was tested in duplicate with two biological replicates (n = 4). Negative controls comprised an equivalent volume of DMSO (equivalent of 1% v/v) to normalise the growth data. Data points >100% growth and <0% growth were tabulated as 100% and 0%, respectively. Some compounds were not tested in all parasite lines as there was insufficient material remaining.

Series [2] deals with L. mexicana axenic amastigotes. In words: Initial screen, L. mexicana axenic amastigotes, Alamar Blue. Format: cell-based, Leishmania mexicana. The method, then: as §1, §2
(Resazurin is reduced to fluorescent resorufin, in cell work by metabolically active cells.)

Series [3] has as its system T. evansi bloodstream form. In words: Initial screen, T. evansi bloodstream form, Alamar Blue. Format: cell-based, Trypanosoma evansi. As to conditions: Trypanosoma evansi; for activity at 1 µM: initial screen; for inhibition of growth at 1 µM: x = initial hit, read-out: initial hit T.e. On the procedure:
(§3) 634 compounds from the PhytoQuest Phytopure temperate plant natural product library were screened for growth inhibitory activity against L. mexicana axenic amastigotes, T. brucei bloodstream form, intraerythrocytic asexual P. falciparum (at 2 μM) and T. evansi bloodstream form parasites (at 1 μM). […] Our initial hits were defined as reducing growth of the parasite by ≥50%.
(§4) L. mexicana strain MNYC/BZ/62/M379 and L. donovani strain LdBOB (a clonal line from strain MHOM/SD/62/1S-CL2) were maintained in vitro in the procyclic promastigote stage. Parasites were cultivated at 26 °C in Schneider’s medium (Gibco) pH 7.0 containing 10% FBS, 100 U/mL penicillin (Lonza) and 100 μg/mL streptomycin (Lonza) as previously described. Differentiation into axenic amastigotes was performed as described previously. Briefly, axenic amastigotes were cultivated at 32 °C in Schneider’s medium pH 5.5 containing 10% FBS, 100 U/mL penicillin (Lonza) and 100 μg/mL streptomycin (Lonza). Bloodstream form T. brucei brucei strain Lister 427 and T. evansi strain Antat 3/3 [59] were maintained in vitro at 37 °C with 5% (v/v) CO2 in HMI-11 medium supplemented with 10% FBS, as described elsewhere. Intraerythrocytic cultures of P. falciparum Dd2^Luc strain [62] were maintained at 37 °C in a 1% O2:3% CO2:96% N2 atmosphere in RPMI-1640 containing 37.5 mM HEPES, 5 mM NaOH, 10 mM D-glucose, 2 mM L-glutamine, 100 μM hypoxanthine, […] gentamicin sulfate, 5% human serum and 5% albumax-II and 2% haematocrit erythrocytes. When required, cultures were synchronised to ring stages using the sorbitol lysis method. Preliminary cytotoxicity screening was assessed using HepG2 cells. These cells were maintained in vitro at 37 °C with 5% (v/v) CO2 in DMEM (Sigma) pH 7 supplemented with 10% FBS, 100 U/mL penicillin (Lonza) and 100 μg/mL streptomycin (Lonza), as previously described. The human monocyte cell line THP-1 [68] was maintained in vitro by culturing at 37 °C with 5% (v/v) CO2 in complete RPMI medium (Dutch modified RPMI-1640 (Gibco) containing 10% FBS and 2 mM L-glutamine (Gibco)). Differentiation of THP-1 cells into macrophages was performed by seeding 2.5 × 10^5 cells/mL in complete RPMI media, supplemented with 20 ng/mL phorbol 12-myristate 13-acetate (PMA), followed by incubation at 37 °C with 5% (v/v) CO2 for 24 h.
as §2, with “The” for “The PhytoQuest Phytopure library is a commercially available collection of purified compounds isolated predominantly from temperate zone plants, with structures confirmed by NMR and mass spectrometry. The”

A short description of series [4]: in vitro. The conditions noted are these: human, pH 7, HepG2 CC50.
Text: Initial hits from the parasite panel screen were taken forward in log concentration versus normalised response assays to estimate the half maximal effective concentration (EC50) in hit species as well as the half maximal cytotoxic concentrations (CC50) in the human hepatoma cell line HepG2 as a preliminary test for selectivity. Using CC50/EC50 to define the selectivity index (SI), the selectivity for each compound in a defined species compared to a human cell line was estimated and compared to the EC50 (Figure 3).
as §4
EC50 values were determined by serial two-fold dilution of each compound in 96 well plates. Culture conditions and viability assays were as stated for the initial screen, with some exceptions. L. mexicana and L. donovani axenic amastigotes were seeded at 2 × 10^6 cell/s mL, T. brucei and T. evansi were seeded at 2 × 10^5 cells/mL. For cytotoxicity studies, HepG2 cells were seeded at 1 × 10^5 cells/mL, incubated for 48 h and viability was assessed using the Alamar Blue assay. Differentiated THP-1 cells were seeded at 5 × 10^4 cells/mL, incubated for 48 h, and viability was assessed by the Alamar Blue assay. Normalised growth and viability data (compared to untreated controls) were plotted against Log10 concentration to estimate EC50 in GraphPad (Prism v6). Bioluminescence relative rate of kill assays in asexual intraerythrocytic P. falciparum Dd2^Luc were carried out as described.

Series [5] concerns T. brucei bloodstream form. In words: Initial screen, T. brucei bloodstream form, Alamar Blue. Format: cell-based, Trypanosoma brucei brucei. As to conditions: for initial hit against T. brucei / inhibition of growth at 2 µM: 2 μM; for initial hit against T. brucei: growth reduced by ≥50%; for activity at 2 µM / inhibition of growth at 2 µM: Trypanosoma brucei; for activity at 2 µM: initial screen; for inhibition of growth at 2 µM: x = initial hit, read-out: initial hit T.b. On the procedure: as §3, §4
as §2, with “The” for “The PhytoQuest Phytopure library is a commercially available collection of purified compounds isolated predominantly from temperate zone plants, with structures confirmed by NMR and mass spectrometry. The”

Series [6] relates to T. brucei. In words: Concentration-response EC50, T. brucei. As to conditions: Trypanosoma brucei, 48 h, bloodstream form, 48 h; read-out: T. brucei EC50. In kind it is cell-based, Trypanosoma brucei brucei.
Method: EC50 values were determined by serial two-fold dilution of each compound in 96 well plates. Culture conditions and viability assays were as stated for the initial screen, with some exceptions. L. mexicana and L. donovani axenic amastigotes were seeded at 2 × 10^6 cell/s mL, T. brucei and T. evansi were seeded at 2 × 10^5 cells/mL. For cytotoxicity studies, HepG2 cells were seeded at 1 × 10^5 cells/mL, incubated for 48 h and viability was assessed using the Alamar Blue assay [66, 67]. […] Normalised growth and viability data (compared to untreated controls) were plotted against Log10 concentration to estimate EC50 in GraphPad (Prism v6).
Where [7] appears, read: Plasmodium falciparum, 48 h, read-out: %growth P. falciparum, mean % growth compared to a normalised control with same concentration of DMSO solvent, initial screen.
[8] abbreviates: Leishmania mexicana, read-out: % growth L. mexicana, mean % growth compared to a normalised control with same concentration of DMSO solvent, initial screen.
Setting [9] is: mean % growth compared to a normalised control with same concentration of DMSO solvent, read-out: % growth T. evansi.
The mark [10] stands for this setting: mean % growth compared to a normalised control with same concentration of DMSO solvent, read-out: % growth T. b. brucei.
Setting [11] is: Plasmodium falciparum, 48 h, read-out: mean % growth, P. falciparum, initial screen, compared to a normalised control with same concentration of DMSO solvent.
Where [12] appears, read: Leishmania mexicana, read-out: mean % growth, L. mexicana, initial screen, compared to a normalised control with same concentration of DMSO solvent.
Where [13] appears, read: compared to a normalised control with same concentration of DMSO solvent, read-out: mean % growth, T. evansi.
[14] abbreviates: compared to a normalised control with same concentration of DMSO solvent, read-out: mean % growth, T. b. brucei.

As for `CC(C)c1ccc2c(c1)CCC1C(C)(C=O)CCCC21C` (stereo not shown) [Compound 700014], the “activity against P. falciparum in screen” value in series [1] (2 μM) is recorded as “neither 700014 or 700063 showed activity against P. falciparum”. Moreover, the activity at 2 µM in series [1] (setting [7]) came to 107%; in series [2] (setting [8]) it was 56.9%; in series [5] (setting [10]), 25.2%. The “decrease of L. mexicana survival” value in series [2] (2 μM, 72 h) is given as around 70%. Besides, in series [3] (setting [9]), the activity at 1 µM came out at 93%. In addition, the CC50 at 48 h in series [4] is 40 µM. Besides, the “initial hit against T. brucei” value in series [5] is “initial hits”. Besides, the inhibition of growth at 2 µM in series [5] is above 50%. Further, the negative-log EC50 (pEC50) in series [6] is 5.96.
As to `COc1cc2ccc(=O)oc2c(OC)c1OCC1C(C)=CCC2C(C)(C)C(O)CCC12C` (stereo not shown) [Compound 700867], the figures for the activity at 2 µM in series [1] (setting [11]), in series [2] (setting [12]) and in series [5] (setting [14]) were 104%, 60.7% and 19.3%, respectively. Besides, in series [3] (setting [13]), the activity at 1 µM was 126%. Besides, the CC50 at 48 h in series [4] was 27 µM. Further, in series [5], the “initial hit against T. brucei” value was “initial hits”. Also, the inhibition of growth at 2 µM in series [5] is above 50%. In series [6], the pEC50 is 5.59.
As for `C#CC#CCc1ccccc1C(=O)OC` [Compound 701248], the values for the activity at 2 µM in series [1] (setting [11]), in series [2] (setting [12]) and in series [5] (setting [14]) were 100%, 19.2% and 60.9%, respectively. For the same molecule, the “initial hit against L. mexicana” value in series [2] (2 μM, growth inhibited by ≥80%) is “initial hits”. Also, the inhibition of growth at 2 µM in series [2] (Leishmania mexicana, 2 μM, x = initial hit, read-out: initial hit L.m) is above 80%.
For `CC(C)c1ccc2c(c1)CCC1C(CCCC1C(=O)O)O2` (stereo not shown) [Compound 700110], the activity at 2 µM in series [1] (setting [7]) came out at 105%; in series [2] (setting [8]), 52.4%; in series [5] (setting [10]) it was 87.2%. Moreover, the activity at 1 µM in series [3] (setting [9]) was 47.9%. For the same molecule, in series [3], the inhibition of growth at 1 µM is above 50%.
Turning to `C/C1=C\C2OC(=O)C(=O)C2CC/C(C(=O)OC2OC(CO)C(O)C(O)C2O)=C\CC1` (stereo not shown) [Compound 700458], the activity at 2 µM in series [1] (setting [11]) turned out to be 119%; in series [2] (setting [12]), 48.5%; in series [5] (setting [14]), 78.2%. For the same molecule, the activity at 1 µM in series [3] (setting [13]) is 48.2%. Further, the inhibition of growth at 1 µM in series [3] was above 50%.
For the molecule `CC(C)C(=O)OC1C2C(CC(C)C3C=CC(=O)C31C)OC(=O)C2C` (stereo not shown) [Compound 701156], the values for the activity at 2 µM in series [1] (setting [11]), in series [2] (setting [12]) and in series [5] (setting [14]) were 93.7%, 52.7% and 24.3%, respectively. Moreover, the activity at 1 µM in series [3] (setting [13]) amounted to 113%. In addition, the “initial hit against T. brucei” value in series [5] is recorded as “initial hits”. Moreover, the inhibition of growth at 2 µM in series [5] was above 50%. Also, the negative-log EC50 (pEC50) in series [6] is 6.00.
As to `O=C1C=CC(O)(c2cc(=O)c3c(O)cc(O)cc3o2)C=C1` [Compound 700586], the results for the activity at 2 µM in series [1] (setting [11]), in series [2] (setting [12]) and in series [5] (setting [14]) were 77%, 56.5% and 3.1%, respectively. In series [4], this molecule had a CC50 at 48 h of 3.6 µM. In series [5], the “initial hit against T. brucei” value is given as “initial hits”. Also, the inhibition of growth at 2 µM in series [5] is above 50%. In addition, the negative logarithm of the EC50 (pEC50) in series [6] was 6.20.
`CC(=O)OC1C(O)C(C)OC(OC2C(OC(=O)C3C[C@@H]4OC5(CC(OC(=O)/C=C/c6ccccc6)[C@@H](C)CO5)C(O)(CO)[C@@H]4CO3)OC(C)C(O)C2OC(C)=O)C1O` (single isomer, unassigned) [Compound 700047]: the values for the activity at 2 µM in series [1] (setting [7]), in series [2] (setting [8]) and in series [5] (setting [10]) were 41.8%, 60% and 61%, respectively. Also, the inhibition of growth at 2 µM in series [1] (Plasmodium falciparum, 48 h, read-out: initial hit P.f) was above 50%. In addition, the activity at 1 µM in series [3] (setting [9]) was found to be 90.2%.
